The text below walks through data of patent US5641779A, “Selective ligands of 5-HT1D -5-HT1B receptors derived from indolepiperazine which are useful medicaments” (Pierre Fabre Medicament, priority 1992, dated 1997).

One may read the IC50 as the point on the concentration scale where inhibition reaches its midpoint.

Structures can show the parent of a compound that is named as a salt. Where two headings read alike, the source gives them in different places.

The test system of test [1] is 5-HT1D. Nature of the test: Affinity for 5-HT1D receptors (3H-5-HT binding, sheep caudate nuclei membranes). The note with it: Ratio of the IC50 values for the 5HT1A and 5HT1D receptors. The protocol: This study is carried out according to the technique described by Herrick-Davis and Titeler (J. Neurochem. 50, 1624-1631, 1988).
Preparation of the membranes:
Sheep brains are removed at the local abattoir and transported in ice. The caudate nuclei are removed, weighed and homogenized with a Polytron for 20 sec. (speed 6-7) in 20 volumes of Tris-HCl 50 mM, pH 7.7. The homogenate is centrifuged for 10 min at 48,000 g with an L5 50E centrifuge (Beckman).
The pellet, taken up in 20 volumes of Tris-HCl 50 mM, pH 7.7, is placed in a water bath at 37° C. for 10 min and then recentrifuged for 10 min at 48,000 g. The pellet then obtained is immediately frozen in fractions containing 0.5 g of tissue.
The pellet is defrosted and homogenized with a Dounce in 80 volumes of Tris-HCl, 50 mM pH 7.7 containing 4 mM CaCl2, 10μM of pargyline and 0.1% of ascorbic acid.
Binding is carried out at 25° C. by incubating for 30 min:
0.1 ml of buffer or 10 μM, as final concentration, of sumatriptan, in order to obtain the non-specific binding, or the product which forms part of this invention at various concentrations (between 10^-10 and 10^-6 M).
0.8 ml of membrane suspension
0.1 ml of ^3 H-5-HT (15 to 30 Ci/mM, New England Nuclear France)
The incubation is brought to an end by rapid filtration through GF/B filters and rinsing with 3 times 3 ml of ice-cold buffer, using a harvester manufactured by Brandel which makes it possible to filter 48 samples. The filters are introduced into vials containing 4 ml of emulsifier-safe liquid scintillant (Packard) and the radioactivity measured with a Tri-carb 4640 counter (Packard).
The IC50 (concentration which inhibits the specific affinity by 50%) is determined graphically.

Test [2] addresses T1, 5-HT1A (Rattus norvegicus, UniProt P19327).
T1 construct: from tissue; host or cells: rat frontal cortex
T1 sequence (P19327 1-422): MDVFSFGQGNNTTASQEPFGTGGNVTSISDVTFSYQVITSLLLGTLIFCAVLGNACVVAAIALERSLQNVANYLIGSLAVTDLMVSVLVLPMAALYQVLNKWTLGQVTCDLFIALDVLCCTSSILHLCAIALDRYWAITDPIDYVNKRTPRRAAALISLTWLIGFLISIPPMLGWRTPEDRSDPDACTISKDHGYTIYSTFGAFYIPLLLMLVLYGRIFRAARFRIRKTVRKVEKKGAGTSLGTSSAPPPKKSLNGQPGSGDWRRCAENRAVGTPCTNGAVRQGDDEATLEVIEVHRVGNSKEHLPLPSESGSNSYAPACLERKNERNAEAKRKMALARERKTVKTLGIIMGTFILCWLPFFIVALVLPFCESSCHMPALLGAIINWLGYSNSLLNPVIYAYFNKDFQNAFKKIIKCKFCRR
The test can be described thus: 5-HT1A receptor binding (Peroutka). The note with it: rat frontal cortex (title of cited method); mean; read-out: IC50 5-HT1A mean. The method, then:
(§1) The IC50 values of the various products which form part of this invention for the other receptors were measured according to the techniques described in the following references:
(§2) Peroutka S. J. Pharmacological differentiation and characterization of 5-HT1A, 5-HT1B and 5-HT1C binding sites in rat frontal cortex. J. Neurochem., 45, 529-540, 1986.

Test [3] addresses T2, 5-HT1B (Rattus norvegicus, UniProt P28564).
T2 construct: from tissue; host or cells: rat frontal cortex
The test can be described thus: 5-HT1B receptor binding (Peroutka). The method, then: as §1, §2

The target of test [4] is T3, 5-HT1C (Sus scrofa, UniProt K7GSR7).
T3 construct: serotonergic ligands to the porcine choroid plexus; from tissue; host or cells: porcine choroid plexus
T3 sequence (K7GSR7 1-457): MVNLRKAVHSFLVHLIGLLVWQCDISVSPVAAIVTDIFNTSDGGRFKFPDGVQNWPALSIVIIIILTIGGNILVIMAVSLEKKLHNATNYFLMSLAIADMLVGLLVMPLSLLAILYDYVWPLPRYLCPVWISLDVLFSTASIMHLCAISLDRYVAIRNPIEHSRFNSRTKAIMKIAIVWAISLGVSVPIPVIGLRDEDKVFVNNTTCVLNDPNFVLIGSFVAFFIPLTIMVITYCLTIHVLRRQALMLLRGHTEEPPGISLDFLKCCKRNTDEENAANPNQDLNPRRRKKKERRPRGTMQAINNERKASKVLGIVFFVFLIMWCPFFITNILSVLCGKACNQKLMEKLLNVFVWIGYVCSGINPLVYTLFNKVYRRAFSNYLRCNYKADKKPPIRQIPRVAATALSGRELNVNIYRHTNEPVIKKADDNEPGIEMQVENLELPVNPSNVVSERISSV
The test can be described thus: 5-HT1C receptor binding (Pazos et al.). More on the design: species or system porcine. The method, then: as §1
Pazos A., Hoyer D. and Palacios J. M. The binding sites of serotonergic ligands to the porcine choroid plexus: characterization of a new type of serotonin recognition site. Eur. J. Pharmacol., 106, 539-546, 1985.

In test [5] the target is T4, 5-HT2 (Rattus norvegicus, UniProt P14842).
T4 construct: from tissue
T4 sequence (P14842 whole entry): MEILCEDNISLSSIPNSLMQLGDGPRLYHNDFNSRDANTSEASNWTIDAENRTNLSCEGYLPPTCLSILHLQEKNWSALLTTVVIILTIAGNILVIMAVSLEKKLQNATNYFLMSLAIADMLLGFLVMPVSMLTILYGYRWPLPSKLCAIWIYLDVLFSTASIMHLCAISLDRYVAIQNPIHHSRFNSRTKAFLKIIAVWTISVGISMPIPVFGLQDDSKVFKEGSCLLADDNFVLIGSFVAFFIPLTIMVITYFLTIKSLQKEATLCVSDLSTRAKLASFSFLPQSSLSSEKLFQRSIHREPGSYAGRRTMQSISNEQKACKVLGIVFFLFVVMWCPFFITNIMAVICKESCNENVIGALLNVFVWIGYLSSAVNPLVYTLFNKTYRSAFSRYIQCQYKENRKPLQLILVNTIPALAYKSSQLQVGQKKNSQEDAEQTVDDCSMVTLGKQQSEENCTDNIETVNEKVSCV
The test can be described thus: 5-HT2 receptor binding (Leysen et al.). The note with it: 3H-ketanserine (title of cited method). The method, then: as §1
Leysen J. E., Niemegeers C. J. E., Van Nueten J. M. and Laduron P.M. ^3 H-ketanserine (R 41468), a selective ^3 H ligand for serotonin2 receptor binding sites. Mol. Pharmacol., 21, 301-330, 1982.

The target in test [6] is T5, α2-Adrenergic receptor (Rattus norvegicus, UniProt P22909).
T5 construct: in the rat brain; from tissue; host or cells: rat brain
T5 sequence (P22909 1-465): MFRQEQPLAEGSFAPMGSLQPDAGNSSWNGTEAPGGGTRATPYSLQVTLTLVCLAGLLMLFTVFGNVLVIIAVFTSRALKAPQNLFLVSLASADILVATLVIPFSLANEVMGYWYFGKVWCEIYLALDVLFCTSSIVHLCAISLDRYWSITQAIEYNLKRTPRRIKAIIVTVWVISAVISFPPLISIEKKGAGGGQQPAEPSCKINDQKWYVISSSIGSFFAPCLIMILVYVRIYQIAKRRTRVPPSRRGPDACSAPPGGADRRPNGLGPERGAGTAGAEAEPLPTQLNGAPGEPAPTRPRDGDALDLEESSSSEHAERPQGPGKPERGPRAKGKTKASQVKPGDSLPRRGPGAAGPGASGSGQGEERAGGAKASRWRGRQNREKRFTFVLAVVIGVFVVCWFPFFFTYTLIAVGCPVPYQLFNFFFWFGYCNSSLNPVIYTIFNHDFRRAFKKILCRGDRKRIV
Nature of the test: α2-Adrenergic receptor binding (Mallard et al.). The note with it: rat brain (title of cited method); read-out: IC50 α2. The method, then: as §1
Mallard N. J., Tyacke R., Hudson A. L. and Nutt D. S. Comparative binding studies of ^3 -idazoxan and ^3 -RX821002 in the rat brain. Brit. J. Pharmacol. 102, 221P, 1991.

Test [7] addresses α1-Adrenergic receptor. The test can be described thus: α1-Adrenergic receptor binding (Leslie Morrow and Creese). The note with it: rat brain (title of cited method). The protocol:
as §1
Leslie Morrow A. and Creese I. Characterization of α1-adrenergic receptor subtypes in rat brain: a reevaluation of ^3 H-WB4101 and ^3 H prazosin binding. Mol. Pharmacol. 29, 321-330, 1986.

For test [8], the target named is T6, D2-Dopaminergic receptor (Canis lupus familiaris, UniProt Q9GJU1).
T6 construct: from tissue
T6 sequence (Q9GJU1 whole entry): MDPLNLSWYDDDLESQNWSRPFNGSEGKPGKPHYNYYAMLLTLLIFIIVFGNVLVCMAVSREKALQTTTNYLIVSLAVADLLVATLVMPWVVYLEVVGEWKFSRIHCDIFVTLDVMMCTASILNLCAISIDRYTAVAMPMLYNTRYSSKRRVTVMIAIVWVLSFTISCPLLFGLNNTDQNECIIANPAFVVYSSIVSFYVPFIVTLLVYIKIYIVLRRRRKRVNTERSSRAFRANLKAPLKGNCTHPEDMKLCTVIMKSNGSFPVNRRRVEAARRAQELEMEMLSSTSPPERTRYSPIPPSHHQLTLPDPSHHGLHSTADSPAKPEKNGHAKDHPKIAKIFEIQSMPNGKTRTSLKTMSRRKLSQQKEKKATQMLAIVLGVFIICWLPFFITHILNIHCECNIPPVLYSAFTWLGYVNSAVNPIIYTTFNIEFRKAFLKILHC
The test can be described thus: D2-Dopaminergic receptor binding (Nisnik et al.). The note with it: 3H-YM-09159-2 (title of cited method); read-out: IC50 D2. The protocol:
as §1
Nisnik H. B., Grigoriadis D. E., Pri-Bar I., Buckman O. and Seeman P. Dopamine D2 receptors selectively labeled by a benzamide neuroleptic: ^3 H-YM-09159-2 Naunyn-Schmiedeberg's Arch. Pharmacol. 329, 333-343, 1985.

The mark [9] stands for this setting: rat frontal cortex (title of cited method), mean, read-out: IC50 5-HT1B mean.
Setting [10] is: porcine choroid plexus (title of cited method), read-out: IC50 5-HT1C.

T2 sequence (P28564 whole entry): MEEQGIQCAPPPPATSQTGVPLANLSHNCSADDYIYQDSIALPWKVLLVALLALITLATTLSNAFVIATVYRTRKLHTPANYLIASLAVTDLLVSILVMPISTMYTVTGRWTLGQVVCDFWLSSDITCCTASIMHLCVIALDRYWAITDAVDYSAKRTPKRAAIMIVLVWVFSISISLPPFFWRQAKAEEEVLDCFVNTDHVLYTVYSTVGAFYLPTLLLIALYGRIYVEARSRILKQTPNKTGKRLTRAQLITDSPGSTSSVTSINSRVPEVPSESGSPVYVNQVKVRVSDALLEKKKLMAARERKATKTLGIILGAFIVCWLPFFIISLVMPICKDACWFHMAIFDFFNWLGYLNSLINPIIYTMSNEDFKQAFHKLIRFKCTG

Consider `Cc1cccc(N2CCN(C(=O)COc3ccc4[nH]cc(CCNC(=O)OC(C)(C)C)c4c3)CC2)c1C` [Example 5A, 4-(2,3 -Xylyl)-1-(tert-butoxycarbamate-tryptamine-5-O-carboxymethyl)piperazide hydrochloride], for which the “Ratio 1A/1D” value in test [1] was 17.3. Also, the IC50 in test [2] is 34.5 nM; in test [3] (setting [9]) it was 1 nM; in test [4] (setting [10]), 1000 nM; in test [5] it was more than 1000 nM; in test [6], more than 1000 nM; in test [7], more than 1000 nM. Besides, the IC50 in test [8] is more than 1000 nM.

Turning to `Cc1ccccc1N1CCN(C(=O)C(Oc2ccc3[nH]cc(CCN)c3c2)c2ccccc2)CC1` (stereo not drawn) [Example 9, 4-O-Tolyl-1-[tryptamine-5-O-(α-phenylcarboxymethyl)]piperazide hydrochloride], the “Ratio 1A/1D” value in test [1] is 1.7. Also, the IC50 in test [2] was 325 nM; in test [3] (setting [9]) it was 85 nM; in test [4] (setting [10]), 600 nM; in test [5], 550 nM; in test [6], more than 1000 nM; in test [7], more than 1000 nM. The IC50 in test [8] was more than 1000 nM.

As for `Cc1cccc(N2CCN(C(=O)COc3ccc4[nH]cc(CCN)c4c3)CC2)c1C` [Example 5, 4-(2,3-Xylyl)-1-(tryptamine-5-O-carboxymethyl) piperazide hydrochloride], in test [1], the “Ratio 1A/1D” value was 8.2. The IC50 in test [2] is 240 nM; in test [3], 6 nM; in test [4] it was more than 1000 nM; in test [5], more than 1000 nM; in test [6], more than 1000 nM; in test [7] it was more than 1000 nM. Further, in test [8], the IC50 is more than 1000 nM.

Take `NCCc1c[nH]c2ccc(OC(C(=O)N3CCN(c4cccc5ccccc45)CC3)c3ccccc3)cc12` (stereo not drawn) [Example 10, 4-Naphthyl-1-[tryptamine-5-O-(α-phenylcarboxymethyl)]piperazide hydrochloride]: the “Ratio 1A/1D” value in test [1] turned out to be 0.7. In addition, the IC50 was 465 nM in test [2]; 335 nM in test [3] (setting [9]); more than 1000 nM in test [4] (setting [10]); more than 1000 nM in test [5]; more than 1000 nM in test [6]; more than 1000 nM in test [7]. Besides, the IC50 in test [8] was more than 1000 nM.

In the case of `CN1CCN(C(=O)COc2ccc3[nH]cc(CCN)c3c2)CC1` [Example 7, 4-Methyl-1-(tryptamine-5-O-carboxymethyl)piperazide hydrochloride], the “Ratio 1A/1D” value in test [1] is reported as more than 1.4. Also, the IC50 in test [2] is more than 1000 nM; in test [3] (setting [9]), 355 nM; in test [4], more than 1000 nM; in test [5], more than 1000 nM; in test [6], more than 1000 nM; in test [7], more than 1000 nM. For the same compound, the IC50 in test [8] is more than 1000 nM.

Turning to `NCCc1c[nH]c2ccc(OCC(=O)N3CCN(c4cccc5ccccc45)CC3)cc12` [Example 4, 4-(Naphth-1-yl)-1-(tryptamine-5-O-carboxymethyl) piperazide hydrochloride], in test [1], the “Ratio 1A/1D” value turned out to be 35.9. For the same compound, the IC50 in test [2] is 115 nM; in test [3], 1.9 nM; in test [4], 1800 nM; in test [5], more than 1000 nM; in test [6], more than 1000 nM; in test [7], more than 1000 nM. Further, the concentration for half-maximal inhibition (IC50) in test [8] was more than 1000 nM.

On to `CSc1ccc2c(c1)C(N1CCN(C(=O)COc3ccc4[nH]cc(CCNC(=O)OC(C)(C)C)c4c3)CC1)Cc1ccccc1S2` (stereo not shown) [Example 8, 1-[(tert-Butoxycarbamate)tryptamine-5-O-carboxymethyl]-4-[10-(8-methylthio-10-11-dihydrodibenzo[b, f]thiepine)]piperazide hydrochloride], for which the IC50 was more than 1000 nM in test [2] and 1000 nM in test [3] (setting [9]).

`Cc1ccccc1N1CCN(C(=O)COc2ccc3[nH]cc(CCNC(=O)OC(C)(C)C)c3c2)CC1` [ID, 4-o-Tolyl-1-(tert-butoxycarbamate-tryptamine-5-O-carboxymethyl) piperazide hydrochloride]: the “Ratio 1A/1D” value in test [1] amounted to 18.5. The half-maximal inhibitory concentration (IC50) in test [2] was 120 nM; in test [5], 2000 nM; in test [6], 7000 nM; in test [7], 8500 nM; in test [8], more than 100 nM.

Regarding `Cc1ccccc1N1CCN(C(=O)C(C)Oc2ccc3[nH]cc(CCN)c3c2)CC1` (stereo not drawn) [Example 11, 4-o-Tolyl-1-[tryptamine-5-O-(α-methylcarboxymethyl)]piperazide hydrochloride], the “Ratio 1A/1D” value in test [1] amounted to 20.8. In addition, the IC50 in test [2] is 125 nM; in test [3] it was 5.5 nM; in test [4] it was 1000 nM; in test [5], more than 1000 nM.
